A short description of data set [1]: Blood pressure depression after intravenous administration to the allobarbital-anesthetized dog. The data set is classed as in vivo.
Data set [2] concerns human myelogenous leukemic cells (HL-60). The experiment in a line: Inhibition of proliferation of human myelogenous leukemic cells (HL-60), Trypan Blue staining. The data set is classed as cell-based. The conditions noted are these: for Surviving Cell Number: stationary culture at 37°C for 4 days, start 1 x 10^5 cells/ml, control 44.0 x 10^4; for inhibition at 5 µg/mL: Homo sapiens. Here is the method: The test on the inhibition of the proliferation of human myelogenous leukemic cells was conducted by a well known method. The human myelogenous leukemic cells (HL-60) were added to an RPMI culture solution containing 10% bovine fetal serum, the number of cells in the culture solution was adjusted to 1 x 10^5 cells/ml, a solution in ethanol of the compound under test was added to give a concentration of 5µg/ml, and the mixture was subjected to stationary culture at 37°C for 4 days. As a control, a culture solution containing 0.1% of ethanol was similarly cultured. The culture solutions were stained by the Trypan Blue staining method and the surviving cell number was measured to determine the degree of inhibition relative to the control.

The nature of data set [3]: Acute toxicity by intraperitoneal administration. The conditions noted are these: mouse, in vivo, ip; intraperitoneal administration in mice. The method, then:
The acute toxicity of the compounds of the present invention was >50 mg/kg by intraperitoneal administration, so that the prostaglandin D derivatives of the present invention may be considered to be sufficiently safe and suitable for medical use.

Where [4] appears, read: dosage of 10 µg/kg animal body weight.
[5] abbreviates: 96 h, HL-60, 5 µg/ml, 37°C for 4 days, relative to control (0.1% ethanol), b55 gives the same values in %, read-out: Degree of Inhibition.
Where [6] appears, read: HL-60, concentration of 5 µg/ml, read-out: inhibited the proliferation of the leukemic cells.

Molecules are shown by their SMILES. Read-outs that look alike come from different tables or passages of the source.

We go through two molecules from patent publication EP0097023A2, “Prostaglandin D derivatives, process for their preparation and compositions containing them” (ONO PHARMACEUTICAL CO., LTD., priority 1982, dated 1983).

With `CCCCC[C@H](O)/C=C/[C@H]1C(=O)C[C@H](O)[C@@H]1C/C=C\CCCC(=O)O` [PGD2, prostaglandin D2], in data set [1] (setting [4]), the blood pressure depression is listed as 26 mm Hg and the “duration of blood pressure depression effect” value was determined as 6 min. In addition, the “Surviving Cell Number” value in data set [2] (HL-60, 5 µg/ml) is recorded as 19.5 x 10^4 cells/ml. In data set [2] (setting [5]), the inhibition at 5 µg/mL was 55.6%. For the same molecule, the inhibition at 5 µg/mL in data set [2] (setting [6]) came out at 55.6%.

Turning to `CCCCCC=CC=C1C(=O)C=CC1CC=CCCCC(=O)O` (stereo not shown) [(5Z,9Z,14EZ)-11-oxoprosta-5,9,12,14-tetraenoic acid], the LD50 – broadly, the dose expected to kill half of the subjects tested – in data set [3] is 78 mg/kg. For the same molecule, the blood pressure depression entry in data set [1] (dosage of 100 µg/kg animal body weight) is “did not cause blood pressure depression”. Also, in data set [2] (HL-60, 5 µg/ml), the “Surviving Cell Number” value is on record as 3 x 10^4 cells/ml. Further, the inhibition at 5 µg/mL in data set [2] (setting [5]) and in data set [2] (setting [6]) was 93.2% throughout.
